Assay type in all cases: functional
Assay [1] concerns Cryptococcus neoformans. Nature of the assay: Antifungal activity against Cryptococcus neoformans CGMCC 2.3161 assessed as fungal growth inhibition by CLSI based serial microbroth dilution method. (In broth dilution the organism is exposed to a series of concentrations in liquid medium.)
Assay [2] has as its system Pichia kudriavzevii. Briefly: Antifungal activity against Candida krusei GIM 2.1 assessed as fungal growth inhibition by CLSI based serial microbroth dilution method.
Assay [3] relates to Candida tropicalis. Nature of the assay: Antifungal activity against Candida tropicalis CGMCC 2.3739 assessed as fungal growth inhibition by CLSI based serial microbroth dilution method.
The subject of assay [4] is Candida parapsilosis. Nature of the assay: Antifungal activity against Candida parapsilosis GIM 2.190 assessed as fungal growth inhibition by CLSI based serial microbroth dilution method. As to conditions: Lodderomyces parapsilosis.
Assay [5] concerns Candida albicans. Briefly: Antifungal activity against Candida albicans CPCC400616 assessed as fungal growth inhibition by CLSI based serial microbroth dilution method.
In assay [6] the test system is Nakaseomyces glabratus. Briefly: Antifungal activity against Candida glabrata clinical isolate assessed as fungal growth inhibition by CLSI based serial microbroth dilution method.
Assay [7] has as its system Aspergillus fumigatus. Nature of the assay: Antifungal activity against Aspergillus fumigatus CGMCC 3.7795 assessed as fungal growth inhibition by CLSI based serial microbroth dilution method.
Assay [8] relates to Candida albicans. Briefly: Antifungal activity against Candida albicans ATCC SC5314 assessed as fungal growth inhibition by CLSI based serial microbroth dilution method.

In brackets after ≈: the same amount, converted by molar mass. Where only a bound is given, the exact number is not on record here.

For the compound `c1ccc(CC2(Cn3ccnc3)COC(c3cc4ccccc4s3)=N2)cc1` (stereo not given), the MIC (in general, the lowest concentration that inhibits growth of the organism) in assay [1] is 2 mg/L (≈ 5.36 µM); in assay [2] it was over 64 mg/L; in assay [3], over 64 mg/L; in assay [4], over 64 mg/L; in assay [5], over 64 mg/L; in assay [6], over 64 mg/L. Also, the MIC in assay [7] and in assay [8] was over 64 mg/L in each case.

In the case of `Clc1ccc(CC2(Cn3ccnc3)COC(c3ccc(-c4ccsc4)cc3)=N2)cc1` (stereo not given), the MIC in assay [1], in assay [2], in assay [3], in assay [4], in assay [5] and in assay [6] was over 64 mg/L each time. The MIC in assay [7] and in assay [8] was over 64 mg/L in each case.

`c1ccc(CC2(Cn3ccnc3)COC(c3noc4c3CCc3ccccc3-4)=N2)cc1` (stereo not given): the MIC in assay [1] was over 64 mg/L; in assay [2], over 64 mg/L; in assay [3] it was 32 mg/L (≈ 78 µM); in assay [4], over 64 mg/L; in assay [5] it was 32 mg/L (≈ 78 µM); in assay [6], 16 mg/L (≈ 39 µM). The MIC in assay [7] was over 64 mg/L; in assay [8] it was 16 mg/L (≈ 39 µM).

As to `c1ccc(CC2(Cn3ccnc3)COC(c3ccc(-c4ccoc4)cc3)=N2)cc1` (stereo not given), the MIC in assay [1] is 4 mg/L (≈ 10.4 µM); in assay [2], over 64 mg/L; in assay [3], over 64 mg/L; in assay [4] it was over 64 mg/L; in assay [5], over 64 mg/L; in assay [6], over 64 mg/L. Also, the MIC in assay [7] is over 64 mg/L; in assay [8], 0.5 mg/L (≈ 1.3 µM).

In the case of `Fc1cccc(F)c1CC1(Cn2cnnn2)COC(c2ccc(-c3ccsc3)cc2)=N1` (stereo not given), the MIC in assay [1] is over 64 mg/L; in assay [2], over 64 mg/L; in assay [3] it was over 64 mg/L; in assay [4] it was over 64 mg/L; in assay [5], 16 mg/L (≈ 36.6 µM); in assay [6], over 64 mg/L. The MIC in assay [7] is over 64 mg/L; in assay [8], 16 mg/L (≈ 36.6 µM).

Consider `Fc1ccc(CC2(Cn3ccnc3)COC(c3ccc(-c4ccsc4)cc3)=N2)cc1F` (stereo not given), for which the MIC in assay [1], in assay [2], in assay [3], in assay [4], in assay [5] and in assay [6] was over 64 mg/L each time. In addition, the MIC in assay [7] and in assay [8] was over 64 mg/L throughout.

In the case of `CC(C)(C)c1ccc(CC2(Cn3ccnc3)COC(c3ccc(-c4ccsc4)cc3)=N2)cc1` (stereo not given), the MIC in assay [1], in assay [2], in assay [3], in assay [4], in assay [5] and in assay [6] was over 64 mg/L throughout. In addition, the minimal inhibitory concentration (MIC) in assay [7] and in assay [8] was over 64 mg/L in each case.

As to `FC(F)(F)Oc1ccc(CC2(Cn3ccnc3)COC(c3ccc(-c4ccsc4)cc3)=N2)cc1` (stereo not given), the minimum inhibitory concentration (MIC) in assay [1], in assay [2], in assay [3], in assay [4], in assay [5] and in assay [6] was over 64 mg/L in each case. The MIC in assay [7] and in assay [8] was over 64 mg/L throughout.

With `Cc1cccc(CC2(Cn3ccnc3)COC(c3ccc(-c4ccsc4)cc3)=N2)c1` (stereo not given), the MIC in assay [1], in assay [2], in assay [3], in assay [4], in assay [5] and in assay [6] was over 64 mg/L in each case. The MIC in assay [7] and in assay [8] was over 64 mg/L each time.

`c1ccc(CC2(Cn3ccnc3)COC(c3cc(-c4ccccc4)on3)=N2)cc1` (stereo not given): the MIC is 4 mg/L (≈ 10.4 µM) in assay [1]; over 64 mg/L in assay [2]; over 64 mg/L in assay [3]; over 64 mg/L in assay [4]; over 64 mg/L in assay [5]; over 64 mg/L in assay [6]. Also, the minimum inhibitory concentration (MIC) was 2 mg/L (≈ 5.2 µM) in assay [7] and over 64 mg/L in assay [8].

`CC(C)c1ccc(CC2(Cn3ccnc3)COC(c3ccc(-c4ccsc4)cc3)=N2)cc1` (stereo not given): the MIC in assay [1], in assay [2], in assay [3], in assay [4], in assay [5] and in assay [6] was over 64 mg/L throughout. Also, the MIC in assay [7] and in assay [8] was over 64 mg/L in each case.

On to `Fc1ccc(CC2(Cn3ccnc3)COC(c3ccc(-c4ccsc4)cc3)=N2)c(F)c1` (stereo not given), for which the MIC in assay [1] is over 64 mg/L; in assay [2], 2 mg/L (≈ 4.59 µM); in assay [3], over 64 mg/L; in assay [4] it was over 64 mg/L; in assay [5] it was over 64 mg/L; in assay [6], over 64 mg/L. The minimum inhibitory concentration (MIC) in assay [7] and in assay [8] was over 64 mg/L each time.

For `c1ccc(CC2(Cn3ccnc3)COC(c3ccc4c(c3)OCO4)=N2)cc1` (stereo not given), the MIC in assay [1], in assay [2], in assay [3], in assay [4], in assay [5] and in assay [6] was over 64 mg/L throughout. For the same compound, the MIC in assay [7] and in assay [8] was over 64 mg/L throughout.

For the compound `Clc1ccc(CC2(Cn3ccnc3)COC(c3ccc(-c4ccsc4)cc3)=N2)c(Cl)c1` (stereo not given), the MIC in assay [1], in assay [2], in assay [3], in assay [4], in assay [5] and in assay [6] was over 64 mg/L in each case. Moreover, the MIC in assay [7] and in assay [8] was over 64 mg/L each time.

As for `Fc1cccc(CC2(Cn3ccnc3)COC(c3ccc(-c4ccsc4)cc3)=N2)c1` (stereo not given), the minimal inhibitory concentration (MIC) was over 64 mg/L in assay [1]; 1 mg/L (≈ 2.4 µM) in assay [2]; over 64 mg/L in assay [3]; over 64 mg/L in assay [4]; over 64 mg/L in assay [5]; over 64 mg/L in assay [6]. In addition, the MIC in assay [7] and in assay [8] was over 64 mg/L throughout.

Turning to `FC(F)(F)c1cccc(CC2(Cn3ccnc3)COC(c3ccc(-c4ccsc4)cc3)=N2)c1` (stereo not given), the minimum inhibitory concentration (MIC) in assay [1], in assay [2], in assay [3], in assay [4], in assay [5] and in assay [6] was over 64 mg/L in each case. Also, the MIC in assay [7] and in assay [8] was over 64 mg/L in each case.

For `c1ccc(CC2(Cn3ccnc3)COC(c3ccc4ccccc4c3)=N2)cc1` (stereo not given), the MIC was 4 mg/L (≈ 10.9 µM) in assay [1]; over 64 mg/L in assay [2]; over 64 mg/L in assay [3]; over 64 mg/L in assay [4]; over 64 mg/L in assay [5]; over 64 mg/L in assay [6]. For the same compound, the MIC in assay [7] and in assay [8] was over 64 mg/L throughout.

For `c1ccc(COc2ccc(C3=NC(Cc4ccccc4)(Cn4ccnc4)CO3)cc2)cc1` (stereo not given), the MIC in assay [1], in assay [2], in assay [3], in assay [4], in assay [5] and in assay [6] was over 64 mg/L each time. Besides, the MIC in assay [7] and in assay [8] was over 64 mg/L in each case.

As to `Cc1ccc(CC2(Cn3ccnc3)COC(c3ccc(-c4ccsc4)cc3)=N2)cc1` (stereo not given), the minimum inhibitory concentration (MIC) in assay [1], in assay [2], in assay [3], in assay [4], in assay [5] and in assay [6] was over 64 mg/L each time. Further, the MIC in assay [7] and in assay [8] was over 64 mg/L each time.

In the case of `c1ccc(CC2(Cn3ccnc3)COC(c3cc4ccccc4o3)=N2)cc1` (stereo not given), the MIC was over 64 mg/L in assay [1]; over 64 mg/L in assay [2]; 8 mg/L (≈ 22.4 µM) in assay [3]; over 64 mg/L in assay [4]; over 64 mg/L in assay [5]; over 64 mg/L in assay [6]. Besides, the MIC in assay [7] and in assay [8] was over 64 mg/L each time.

Regarding `Clc1cccc(CC2(Cn3ccnc3)COC(c3ccc(-c4ccsc4)cc3)=N2)c1` (stereo not given), the MIC in assay [1], in assay [2], in assay [3], in assay [4], in assay [5] and in assay [6] was over 64 mg/L in each case. In addition, the MIC in assay [7] and in assay [8] was over 64 mg/L each time.

For the compound `Fc1cc(F)cc(CC2(Cn3ccnc3)COC(c3ccc(-c4ccsc4)cc3)=N2)c1` (stereo not given), the MIC in assay [1], in assay [2], in assay [3], in assay [4], in assay [5] and in assay [6] was over 64 mg/L each time. The MIC in assay [7] and in assay [8] was over 64 mg/L each time.

Consider `CCC(C)n1ncn(-c2ccc(N3CCN(c4ccc(OCC5COC(Cn6cncn6)(c6ccc(Cl)cc6Cl)O5)cc4)CC3)cc2)c1=O` (stereo not given) [ITRACONAZOLE], for which the MIC in assay [1] is 0.125 mg/L (≈ 0.177 µM); in assay [2] it was 0.125 mg/L (≈ 0.177 µM); in assay [3], under 0.03 mg/L; in assay [4] it was 0.125 mg/L (≈ 0.177 µM); in assay [5] it was under 0.03 mg/L; in assay [6], 0.125 mg/L (≈ 0.177 µM). The figures for the MIC in assay [7] and in assay [8] were 0.125 mg/L (≈ 0.177 µM) and 0.03 mg/L (≈ 0.0425 µM), respectively.

For `Clc1ccccc1CC1(Cn2ccnc2)COC(c2ccc(-c3ccsc3)cc2)=N1` (stereo not given), the MIC in assay [1] was over 64 mg/L; in assay [2] it was over 64 mg/L; in assay [3] it was 0.5 mg/L (≈ 1.15 µM); in assay [4], 1 mg/L (≈ 2.3 µM); in assay [5], 8 mg/L (≈ 18.4 µM); in assay [6], 16 mg/L (≈ 36.9 µM). Moreover, the MIC in assay [7] worked out at 16 mg/L (≈ 36.9 µM); in assay [8] it was 0.125 mg/L (≈ 0.288 µM).

For `Fc1cccc(F)c1CC1(Cn2ccnn2)COC(c2ccc(-c3ccsc3)cc2)=N1` (stereo not given), the MIC in assay [1] was over 64 mg/L; in assay [2], over 64 mg/L; in assay [3], over 64 mg/L; in assay [4], over 64 mg/L; in assay [5], 16 mg/L (≈ 36.7 µM); in assay [6], over 64 mg/L. Moreover, the minimum inhibitory concentration (MIC) is over 64 mg/L in assay [7] and 16 mg/L (≈ 36.7 µM) in assay [8].

Values taken from ChEMBL document CHEMBL5154783, “Design, synthesis, and evaluation of novel 3-thiophene derivatives as potent fungistatic and fungicidal reagents based on a conformational restriction strategy” (Eur J Med Chem, 2022).
